The NIST ThermoML archive (doi:10.1016/j.jct.2015.12.021)
Numbers after ± are expanded uncertainties.

Conditions: Liquid, Vibrating wire viscometry

## Cc1ccccc1 [toluene]
293.15 K, 100 kPa
  viscosity: 0.5907 ± 0.01 mPa·s
293.15 K, 1000 kPa
  viscosity: 0.5928 ± 0.01 mPa·s
293.15 K, 5000 kPa
  viscosity: 0.6152 ± 0.011 mPa·s
293.15 K, 10000 kPa
  viscosity: 0.6387 ± 0.011 mPa·s
293.15 K, 20000 kPa
  viscosity: 0.6881 ± 0.012 mPa·s
293.15 K, 30000 kPa
  viscosity: 0.7354 ± 0.013 mPa·s
293.15 K, 40000 kPa
  viscosity: 0.7913 ± 0.013 mPa·s
293.15 K, 50000 kPa
  viscosity: 0.8532 ± 0.014 mPa·s
293.15 K, 60000 kPa
  viscosity: 0.908 ± 0.015 mPa·s
293.15 K, 70000 kPa
  viscosity: 0.9632 ± 0.016 mPa·s
293.15 K, 80000 kPa
  viscosity: 1.022 ± 0.017 mPa·s
293.15 K, 100000 kPa
  viscosity: 1.149 ± 0.019 mPa·s
293.15 K, 120000 kPa
  viscosity: 1.287 ± 0.021 mPa·s
293.15 K, 140000 kPa
  viscosity: 1.456 ± 0.024 mPa·s
298.15 K, 100 kPa
  viscosity: 0.5555 ± 0.01 mPa·s
298.15 K, 1000 kPa
  viscosity: 0.5603 ± 0.01 mPa·s
298.15 K, 5000 kPa
  viscosity: 0.5772 ± 0.01 mPa·s
298.15 K, 10000 kPa
  viscosity: 0.6006 ± 0.011 mPa·s
298.15 K, 20000 kPa
  viscosity: 0.6478 ± 0.011 mPa·s
298.15 K, 30000 kPa
  viscosity: 0.692 ± 0.012 mPa·s
298.15 K, 40000 kPa
  viscosity: 0.7442 ± 0.013 mPa·s
298.15 K, 50000 kPa
  viscosity: 0.7983 ± 0.014 mPa·s
298.15 K, 60000 kPa
  viscosity: 0.8463 ± 0.014 mPa·s
298.15 K, 70000 kPa
  viscosity: 0.9027 ± 0.015 mPa·s
298.15 K, 80000 kPa
  viscosity: 0.9625 ± 0.016 mPa·s
298.15 K, 100000 kPa
  viscosity: 1.081 ± 0.018 mPa·s
298.15 K, 120000 kPa
  viscosity: 1.211 ± 0.02 mPa·s
298.15 K, 140000 kPa
  viscosity: 1.349 ± 0.022 mPa·s
313.15 K, 100 kPa
  viscosity: 0.469 ± 0.0088 mPa·s
313.15 K, 1000 kPa
  viscosity: 0.4746 ± 0.0088 mPa·s
313.15 K, 5000 kPa
  viscosity: 0.4885 ± 0.009 mPa·s
313.15 K, 10000 kPa
  viscosity: 0.5046 ± 0.0093 mPa·s
313.15 K, 20000 kPa
  viscosity: 0.5496 ± 0.0099 mPa·s
313.15 K, 30000 kPa
  viscosity: 0.5914 ± 0.01 mPa·s
313.15 K, 40000 kPa
  viscosity: 0.6239 ± 0.011 mPa·s
313.15 K, 50000 kPa
  viscosity: 0.6704 ± 0.012 mPa·s
313.15 K, 60000 kPa
  viscosity: 0.7133 ± 0.012 mPa·s
313.15 K, 70000 kPa
  viscosity: 0.7572 ± 0.013 mPa·s
313.15 K, 80000 kPa
  viscosity: 0.8098 ± 0.014 mPa·s
313.15 K, 100000 kPa
  viscosity: 0.9082 ± 0.015 mPa·s
313.15 K, 120000 kPa
  viscosity: 1.009 ± 0.017 mPa·s
313.15 K, 140000 kPa
  viscosity: 1.128 ± 0.019 mPa·s
323.15 K, 100 kPa
  viscosity: 0.4214 ± 0.0081 mPa·s
323.15 K, 1000 kPa
  viscosity: 0.4238 ± 0.0081 mPa·s
323.15 K, 5000 kPa
  viscosity: 0.4385 ± 0.0083 mPa·s
323.15 K, 10000 kPa
  viscosity: 0.4551 ± 0.0086 mPa·s
323.15 K, 20000 kPa
  viscosity: 0.4877 ± 0.009 mPa·s
323.15 K, 30000 kPa
  viscosity: 0.5293 ± 0.0096 mPa·s
323.15 K, 40000 kPa
  viscosity: 0.565 ± 0.01 mPa·s
323.15 K, 50000 kPa
  viscosity: 0.6021 ± 0.011 mPa·s
323.15 K, 60000 kPa
  viscosity: 0.6377 ± 0.011 mPa·s
323.15 K, 70000 kPa
  viscosity: 0.6789 ± 0.012 mPa·s
323.15 K, 80000 kPa
  viscosity: 0.7322 ± 0.013 mPa·s
323.15 K, 100000 kPa
  viscosity: 0.809 ± 0.014 mPa·s
323.15 K, 120000 kPa
  viscosity: 0.9034 ± 0.015 mPa·s
323.15 K, 140000 kPa
  viscosity: 1.004 ± 0.017 mPa·s
333.15 K, 100 kPa
  viscosity: 0.3804 ± 0.0075 mPa·s
333.15 K, 1000 kPa
  viscosity: 0.3856 ± 0.0076 mPa·s
333.15 K, 5000 kPa
  viscosity: 0.3986 ± 0.0078 mPa·s
333.15 K, 10000 kPa
  viscosity: 0.4153 ± 0.008 mPa·s
333.15 K, 20000 kPa
  viscosity: 0.4495 ± 0.0085 mPa·s
333.15 K, 30000 kPa
  viscosity: 0.4794 ± 0.0089 mPa·s
333.15 K, 40000 kPa
  viscosity: 0.5135 ± 0.0094 mPa·s
333.15 K, 50000 kPa
  viscosity: 0.5485 ± 0.0099 mPa·s
333.15 K, 60000 kPa
  viscosity: 0.5835 ± 0.01 mPa·s
333.15 K, 70000 kPa
  viscosity: 0.6187 ± 0.011 mPa·s
333.15 K, 80000 kPa
  viscosity: 0.6579 ± 0.011 mPa·s
333.15 K, 100000 kPa
  viscosity: 0.7353 ± 0.013 mPa·s
333.15 K, 120000 kPa
  viscosity: 0.8176 ± 0.014 mPa·s
333.15 K, 140000 kPa
  viscosity: 0.9111 ± 0.015 mPa·s
348.15 K, 100 kPa
  viscosity: 0.3302 ± 0.0068 mPa·s
348.15 K, 1000 kPa
  viscosity: 0.3361 ± 0.0069 mPa·s
348.15 K, 5000 kPa
  viscosity: 0.3457 ± 0.007 mPa·s
348.15 K, 10000 kPa
  viscosity: 0.3588 ± 0.0072 mPa·s
348.15 K, 20000 kPa
  viscosity: 0.3876 ± 0.0076 mPa·s
348.15 K, 30000 kPa
  viscosity: 0.418 ± 0.008 mPa·s
348.15 K, 40000 kPa
  viscosity: 0.4485 ± 0.0085 mPa·s
348.15 K, 50000 kPa
  viscosity: 0.4795 ± 0.0089 mPa·s
348.15 K, 60000 kPa
  viscosity: 0.5089 ± 0.0093 mPa·s
348.15 K, 70000 kPa
  viscosity: 0.5441 ± 0.0098 mPa·s
348.15 K, 80000 kPa
  viscosity: 0.5721 ± 0.01 mPa·s
348.15 K, 100000 kPa
  viscosity: 0.6407 ± 0.011 mPa·s
348.15 K, 120000 kPa
  viscosity: 0.7088 ± 0.012 mPa·s
348.15 K, 140000 kPa
  viscosity: 0.7836 ± 0.013 mPa·s
353.15 K, 100 kPa
  viscosity: 0.3163 ± 0.0067 mPa·s
353.15 K, 1000 kPa
  viscosity: 0.3177 ± 0.0067 mPa·s
353.15 K, 5000 kPa
  viscosity: 0.3319 ± 0.0069 mPa·s
353.15 K, 10000 kPa
  viscosity: 0.3449 ± 0.007 mPa·s
353.15 K, 20000 kPa
  viscosity: 0.3701 ± 0.0074 mPa·s
353.15 K, 30000 kPa
  viscosity: 0.4006 ± 0.0078 mPa·s
353.15 K, 40000 kPa
  viscosity: 0.4291 ± 0.0082 mPa·s
353.15 K, 50000 kPa
  viscosity: 0.462 ± 0.0087 mPa·s
353.15 K, 60000 kPa
  viscosity: 0.4919 ± 0.0091 mPa·s
353.15 K, 70000 kPa
  viscosity: 0.5176 ± 0.0095 mPa·s
353.15 K, 80000 kPa
  viscosity: 0.5478 ± 0.0099 mPa·s
353.15 K, 100000 kPa
  viscosity: 0.6113 ± 0.011 mPa·s
353.15 K, 120000 kPa
  viscosity: 0.6825 ± 0.012 mPa·s
353.15 K, 140000 kPa
  viscosity: 0.755 ± 0.013 mPa·s
373.15 K, 100 kPa
  viscosity: 0.2667 ± 0.006 mPa·s
373.15 K, 1000 kPa
  viscosity: 0.2671 ± 0.006 mPa·s
373.15 K, 5000 kPa
  viscosity: 0.2782 ± 0.0062 mPa·s
373.15 K, 10000 kPa
  viscosity: 0.2893 ± 0.0063 mPa·s
373.15 K, 20000 kPa
  viscosity: 0.315 ± 0.0066 mPa·s
373.15 K, 30000 kPa
  viscosity: 0.3401 ± 0.007 mPa·s
373.15 K, 40000 kPa
  viscosity: 0.3643 ± 0.0073 mPa·s
373.15 K, 50000 kPa
  viscosity: 0.3876 ± 0.0076 mPa·s
373.15 K, 60000 kPa
  viscosity: 0.4138 ± 0.008 mPa·s
373.15 K, 70000 kPa
  viscosity: 0.4372 ± 0.0083 mPa·s
373.15 K, 80000 kPa
  viscosity: 0.4649 ± 0.0087 mPa·s
373.15 K, 100000 kPa
  viscosity: 0.5193 ± 0.0095 mPa·s
